Source: patent US10662189B2, “PDE4 inhibitor” (SHIJIAZHUANG SAGACITY NEW DRUG DEVELOPMENT CO., LTD., priority 2016, dated 2020)

Molecular target: Recombinant human PDE4B (Homo sapiens (Human), UniProt Q07343)
Assay: Inhibitory activity against PDE 4B in vitro (fluorescence polarization, Transcreener AMP2/GMP2)
Format: biochemical
Conditions: 1 μM cAMP
Description: Inhibitory activity of the compounds against PDE 4B
The enzyme activity was indicated by measuring the AMP/GMP expression and tracing AMP/GMP antibody binding based on fluorescence polarization in the biological assay.
10 mM Tris-HCl (pH 7.5), 5 mM MgCl2, 0.01% Brij 35, 1 mM DTT and 1% DMSO.
Recombinant human PDE4B (Gen accession number: NM_002600; amino acid 305 end) was expressed by baculovirus in Sf9 insect cells using an N-terminal GST tag. MW=78 kDa.
Transcreener® AMP2/GMP2 antibody and AMP2/GMP2 AlexaFluor633 tracer
i) Recombinant human PDE4B and the enzyme substrate (1 μM cAMP) were dissolved in the newly-prepared buffer solution, respectively.
ii) The PDE4B buffer solution defined as above was transferred into the reaction wells.
iii) The compound which was dissolved in 100% DMSO was added to the reaction wells of the PDE4B buffer solution by ultrasonic oscillator (echo 550; nanoliter range) and incubated at room temperature for 10 minutes.
iv) The enzymatic buffer solution was then added to the reaction wells defined as above to initiate the reaction.
v) The reaction was incubated at room temperature for 1 hour.
vi) The reaction was terminated by adding detecting mixture (Transcreener® AMP2/GMP2 antibody and AMP2/GMP2 AlexaFluor633 tracer) and incubated for 90 minutes with slowly mixing. The measurement range of fluorescence polarization is Ex/Em=620/688.
The fluorescence polarization signal was converted into nM according to the AMP/GMP standard curve and the percent enzyme activity relative to DMSO calculated by Excel. GraphPad Prism was used to plot the curves (Drawing Medicine Icon).

Recombinant human PDE4B, sequence (Q07343 305-736 limits assumed): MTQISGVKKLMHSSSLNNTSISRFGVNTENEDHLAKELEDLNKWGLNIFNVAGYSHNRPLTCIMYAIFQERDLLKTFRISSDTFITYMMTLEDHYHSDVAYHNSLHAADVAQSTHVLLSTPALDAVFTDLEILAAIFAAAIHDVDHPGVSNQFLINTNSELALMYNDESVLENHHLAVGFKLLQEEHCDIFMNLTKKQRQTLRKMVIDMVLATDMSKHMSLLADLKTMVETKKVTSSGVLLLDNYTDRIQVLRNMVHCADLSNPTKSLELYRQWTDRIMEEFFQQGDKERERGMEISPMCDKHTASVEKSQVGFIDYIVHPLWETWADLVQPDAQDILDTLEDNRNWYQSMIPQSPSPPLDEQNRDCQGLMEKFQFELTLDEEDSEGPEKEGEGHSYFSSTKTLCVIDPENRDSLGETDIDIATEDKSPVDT

Row | SMILES | IC50
1 | CCOc1cc([C@@H](CS(C)(=O)=O)n2c(=O)[nH]c3cc(Cl)cnc32)ccc1OC [WX001] | 9.48 nM
2 | CCOc1cc([C@@H](CS(C)(=O)=O)n2c(=O)[nH]c3cc(C(F)(F)F)cnc32)ccc1OC [WX002] | 5.66 nM
3 | CCOc1cc([C@@H](CS(C)(=O)=O)n2c(=O)[nH]c3cc(F)cnc32)ccc1OC [WX003] | 10.6 nM
4 | CCOc1cc([C@@H](CS(C)(=O)=O)n2c(=O)[nH]c3cc(Br)cnc32)ccc1OC [WX004] | 7.09 nM
5 | CCOc1cc([C@@H](CS(C)(=O)=O)n2c(=O)[nH]c3cc(C4CC4)cnc32)ccc1OC [WX005] | 5.03 nM
6 | CCOc1cc([C@@H](CS(C)(=O)=O)n2c(=O)[nH]c3cc(Cc4ccccc4F)cnc32)ccc1OC [WX006] | 1.8 nM
7 | CCOc1cc([C@@H](CS(C)(=O)=O)n2c(=O)[nH]c3cc(C=C(C)C)cnc32)ccc1OC [WX007] | 2.81 nM
8 | CCOc1cc([C@@H](CS(C)(=O)=O)n2c(=O)[nH]c3cc(CC(C)C)cnc32)ccc1OC [WX008] | 4.89 nM
9 | CCOc1cc([C@@H](CS(C)(=O)=O)n2c(=O)[nH]c3cc(-c4ccccc4F)cnc32)ccc1OC [WX009] | 0.86 nM
10 | CCOc1cc([C@@H](CS(C)(=O)=O)n2c(=O)[nH]c3cc(-c4ccccc4)cnc32)ccc1OC [WX010] | 2.6 nM
11 | CCOc1cc([C@@H](CS(C)(=O)=O)n2c(=O)[nH]c3cc(-c4cccc(F)c4)cnc32)ccc1OC [WX011] | 3.4 nM
12 | CCOc1cc([C@@H](CS(C)(=O)=O)n2c(=O)[nH]c3cc(-c4ccc(F)cc4)cnc32)ccc1OC [WX012] | 3.9 nM
13 | CCOc1cc([C@@H](CS(C)(=O)=O)n2c(=O)[nH]c3cc(-c4cccc(F)c4F)cnc32)ccc1OC [WX013] | 0.994 nM
14 | CCOc1cc([C@@H](CS(C)(=O)=O)n2c(=O)[nH]c3cc(-c4ccccc4C)cnc32)ccc1OC [WX014] | < 0.5 nM
15 | CCOc1cc([C@@H](CS(C)(=O)=O)n2c(=O)[nH]c3cc(-c4ccccc4C(C)C)cnc32)ccc1OC [WX015] | 1.04 nM
16 | CCOc1cc([C@@H](CS(C)(=O)=O)n2c(=O)[nH]c3cc(-c4ccccc4Cl)cnc32)ccc1OC [WX016] | < 0.5 nM
17 | CCOc1cc([C@@H](CS(C)(=O)=O)n2c(=O)[nH]c3cc(-c4ccccc4OC)cnc32)ccc1OC [WX017] | 0.641 nM
18 | CCOc1cc([C@@H](CS(C)(=O)=O)n2c(=O)[nH]c3cc(-c4ccccc4C(F)(F)F)cnc32)ccc1OC [WX018] | 0.391 nM
19 | CCOc1cc([C@@H](CS(C)(=O)=O)n2c(=O)[nH]c3cc(-c4cn[nH]c4)cnc32)ccc1OC [WX019] | 3.38 nM

Row | SMILES | IC50
20 | CCOc1cc([C@@H](CS(C)(=O)=O)n2c(=O)[nH]c3cc(C)cnc32)ccc1OC [WX020] | 65.8 nM
21 | CCOc1cc([C@@H](CS(C)(=O)=O)n2c(=O)[nH]c3cc(-n4ccccc4=O)cnc32)ccc1OC [WX021] | 26.1 nM
22 | CCOc1cc([C@@H](CS(C)(=O)=O)n2c(=O)[nH]c3cc(C#N)cnc32)ccc1OC [WX022] | 26.5 nM
23 | CCOc1cc([C@@H](CS(C)(=O)=O)n2c(=O)[nH]c3cc(CO)cnc32)ccc1OC [WX023] | 68.1 nM
24 | CCOc1cc([C@@H](CS(C)(=O)=O)n2c(=O)n(Cc3ccccc3F)c3cc(Cc4ccccc4F)cnc32)ccc1OC [WX024] | 2.7 nM
25 | CCOc1cc([C@@H](CS(C)(=O)=O)n2c(=O)[nH]c3cc(-c4cccnc4)cnc32)ccc1OC [WX025] | 9.53 nM
26 | CCOc1cc([C@@H](CS(C)(=O)=O)n2c(=O)[nH]c3cc(-c4ncccn4)cnc32)ccc1OC [WX026] | 4.51 nM
27 | CCOc1cc([C@@H](CS(C)(=O)=O)n2c(=O)[nH]c3cc(-c4cncnc4)cnc32)ccc1OC [WX027] | 19.1 nM
28 | CCOc1cc([C@@H](CS(C)(=O)=O)n2c(=O)[nH]c3cc(-c4nccc(C)n4)cnc32)ccc1OC [WX028] | 9.7 nM
29 | CCOc1cc([C@@H](CS(C)(=O)=O)n2c(=O)[nH]c3cc(-c4cncnc4C)cnc32)ccc1OC [WX029] | 14.8 nM
30 | CCOc1cc([C@@H](CS(C)(=O)=O)n2c(=O)[nH]c3cc(-c4ccccc4CC)cnc32)ccc1OC [WX030] | 0.515 nM
31 | CCOc1cc([C@@H](CS(C)(=O)=O)n2c(=O)[nH]c3cc(-c4ccccc4OCC)cnc32)ccc1OC [WX031] | 0.861 nM
32 | CCOc1cc([C@@H](CS(C)(=O)=O)n2c(=O)[nH]c3cc(-c4ccccc4C#N)cnc32)ccc1OC [WX032] | 0.234 nM
33 | CCOc1cc([C@@H](CS(C)(=O)=O)n2c(=O)[nH]c3cc(-c4c(F)cccc4F)cnc32)ccc1OC [WX033] | 0.671 nM
34 | CCOc1cc([C@@H](CS(C)(=O)=O)n2c(=O)[nH]c3cc(-c4c(C)ncnc4C)cnc32)ccc1OC [WX034] | 5.18 nM
35 | CCOc1cc([C@@H](CS(C)(=O)=O)n2c(=O)[nH]c3cc(-c4ccncc4)cnc32)ccc1OC [WX035] | 15.5 nM
36 | CCOc1cc([C@@H](CS(C)(=O)=O)n2c(=O)[nH]c3cc(-c4cscn4)cnc32)ccc1OC [WX036] | 6.27 nM
37 | CCOc1cc([C@@H](CS(C)(=O)=O)n2c(=O)[nH]c3cc(-c4ncccc4F)cnc32)ccc1OC [WX037] | 10.2 nM

Next, values leading:

Row | IC50 | SMILES
38 | 24.6 nM | COc1ccc(C(CS(C)(=O)=O)n2c(=O)[nH]c3c(-c4ccccc4F)ccnc32)cc1OC (single isomer, unassigned) [WX072]
39 | 14.5 nM | CCOc1cc([C@@H](CS(C)(=O)=O)n2c(=O)[nH]c3cc(-c4nccnc4C)cnc32)ccc1OC [WX038]
40 | 21.7 nM | CCOc1cc([C@@H](CS(C)(=O)=O)n2c(=O)[nH]c3cc(-c4nnccc4C)cnc32)ccc1OC [WX039]
41 | 10.4 nM | CCOc1cc([C@@H](CS(C)(=O)=O)n2c(=O)[nH]c3cc(C4=CCN(C(=O)OC(C)(C)C)CC4)cnc32)ccc1OC [WX040]
42 | 16.4 nM | CCOc1cc([C@@H](CS(C)(=O)=O)n2c(=O)n(C)c3cc(OC)cnc32)ccc1OC [WX041]
43 | 5.42 nM | CCOc1cc([C@@H](CS(C)(=O)=O)n2c(=O)[nH]c3cc(Oc4ncccn4)cnc32)ccc1OC [WX042]
44 | 2.53 nM | CCOc1cc([C@@H](CS(C)(=O)=O)n2c(=O)[nH]c3cc(Oc4ccccc4C(F)(F)F)cnc32)ccc1OC [WX043]
45 | 26.6 nM | CCOc1cc([C@@H](CS(C)(=O)=O)n2c(=O)n(-c3ccccc3)c3cc(Br)cnc32)ccc1OC [WX044]
46 | 6.5 nM | CCOc1cc([C@@H](CS(C)(=O)=O)n2c(=O)n(C3CC3)c3cc(Br)cnc32)ccc1OC [WX045]
47 | 7.79 nM | CCOc1cc([C@@H](CS(C)(=O)=O)n2c(=O)n(C3CC3)c3cc(-c4ccccc4F)cnc32)ccc1OC [WX046]
48 | 41.6 nM | CCOc1cc([C@@H](CS(C)(=O)=O)n2c(=O)n(CC(F)F)c3cc(Cl)cnc32)ccc1OC [WX047]
49 | 19.8 nM | CCOc1cc([C@@H](CS(C)(=O)=O)n2c(=O)n(CC(F)(F)F)c3cc(Cl)cnc32)ccc1OC [WX048]
50 | 90.7 nM | CCOc1cc([C@@H](CS(C)(=O)=O)n2c(=O)n(CC(F)F)c3cc(F)cnc32)ccc1OC [WX049]
51 | 11 nM | CCOc1cc([C@@H](CS(C)(=O)=O)n2c(=O)n(C)c3cc(Br)cnc32)ccc1OC [WX050]
52 | 9.1 nM | CCOc1cc([C@@H](CS(C)(=O)=O)n2c(=O)n(CCOC)c3cc(Br)cnc32)ccc1OC [WX051]
53 | 8.2 nM | CCOc1cc([C@@H](CS(C)(=O)=O)n2c(=O)n(CCS(C)(=O)=O)c3cc(Br)cnc32)ccc1OC [WX052]

Row | IC50 | SMILES
54 | 1.49 nM | CCOc1cc([C@@H](CS(C)(=O)=O)n2c(=O)n(Cc3ccccc3F)c3cc(Br)cnc32)ccc1OC [WX053]
55 | 6.9 nM | CCOc1cc([C@@H](CS(C)(=O)=O)n2c(=O)n(Cc3nccc(C)n3)c3cc(Br)cnc32)ccc1OC [WX054]
56 | 6.99 nM | CCOc1cc([C@@H](CS(C)(=O)=O)n2c(=O)n(Cc3cncc(C)n3)c3cc(Br)cnc32)ccc1OC [WX055]
57 | 3.4 nM | CCOC(=O)Cn1c(=O)n([C@H](CS(C)(=O)=O)c2ccc(OC)c(OCC)c2)c2ncc(Br)cc21 [WX056]
58 | 1.99 nM | CCOc1cc([C@@H](CS(C)(=O)=O)n2c(=O)n(CC)c3cc(-c4ccccc4F)cnc32)ccc1OC [WX058]
59 | 2.02 nM | CCOc1cc([C@@H](CS(C)(=O)=O)n2c(=O)n(CCO)c3cc(-c4ccccc4F)cnc32)ccc1OC [WX059]
60 | 3.48 nM | CCOc1cc([C@@H](CS(C)(=O)=O)n2c(=O)n(C(C)C)c3cc(-c4ccccc4F)cnc32)ccc1OC [WX060]
61 | 0.989 nM | CCOc1cc([C@@H](CS(C)(=O)=O)n2c(=O)n(CC#N)c3cc(-c4ccccc4F)cnc32)ccc1OC [WX061]
62 | 3.5 nM | CCOc1cc([C@@H](CS(C)(=O)=O)n2c(=O)n(C3CCC3)c3cc(-c4ccccc4F)cnc32)ccc1OC [WX062]
63 | 2.23 nM | CCOc1cc([C@@H](CS(C)(=O)=O)n2c(=O)[nH]c3c(C)c(-c4ccccc4)cnc32)ccc1OC [WX064]
64 | 2.24 nM | CCOc1cc([C@@H](CS(C)(=O)=O)n2c(=O)[nH]c3c(Cc4ccccc4F)ccnc32)ccc1OC [WX068]
65 | 47.8 nM | CCOc1cc(C(CS(C)(=O)=O)N2C(=O)Cc3cc(Br)cnc32)ccc1OC (centres unmarked) [WX069]
66 | 73.8 nM | CCOc1cc(C(CS(C)(=O)=O)n2c(=O)oc3cc(Br)cnc32)ccc1OC (centres unmarked) [WX070]
67 | 0.74 nM | CCOc1cc(C(CS(C)(=O)=O)n2c(=O)oc3cc(-c4ccccc4F)cnc32)ccc1OC (centres unmarked) [WX071]
68 | < 0.5 nM | CCOc1cc(C(CS(C)(=O)=O)n2c(=O)[nH]c3cc(-c4ccccc4F)cnc32)ccc1OC(F)F (centres unmarked) [WX073]
